From article PMC11477289, “Low-Basicity 5-HT6 Receptor Ligands from the Group of Cyclic Arylguanidine Derivatives and Their Antiproliferative Activity Evaluation” (International Journal of Molecular Sciences, 2024)

How the values were obtained:
[1] = target: D2L receptor (Homo sapiens, UniProt P14416); assay: [3H]-raclopride radioligand binding assay, D2
[2] = target: T1, human 5-HT6 (Homo sapiens, UniProt P50406); assay: [3H]-LSD radioligand binding assay, 5-HT6R; conditions: HEK293 expressing human 5-HT6R, read-out: 5-HT6 Ki
T1 construct: expressed in transfected cells
Method: Next, the ligands’ affinity for the 5-HT6 receptors was evaluated in the [^3H]-LSD radioligand binding assay. Experiments were performed in a stable HEK293 cell line expressing the human 5-HT6R.
The pellets were stored at −80 °C.

[3] = tested on: LN-229 glioblastoma cell line; assay: Antiproliferative activity (MTS), LN-229; conditions: Homo sapiens, LN-229, 72 h, read-out: IC50 Values LN-229
[4] = Chromatographic hydrophobicity index on C18 column (lipophilicity); assay type: physicochemical
Source text: We began with an assay for lipophilicity, affinity for phospholipids (for 40 compounds), and drug binding to human serum albumin (HSA) (for 20 compounds), using chromatographic protocols developed by Valko [46] and implemented in our laboratory [47]. […] These methods allowed the determination of chromatographic hydrophobicity indices (CHIs), binding to HSA (%HSA), and phospholipids (CHIIAM) using a single-gradient elution experiment and comparison to reference substances.
The mobile phase flow rate was 1.5 mL/min, and the column was maintained at 30 °C. • Chiralpak® HSA (50 mm × 4 mm; 5 µm with safety guard column; Daicel Chiral Technologies, West Chester, PA, USA), mobile phase A: 50 mM ammonium acetate, mobile phase B: HPLC-grade isopropanol (VWR International, Leuven, Belgium). For the first 15 min, the linear gradient from 0 to 20% isopropanol was applied and then held at 20% isopropanol for 12 min. In the last 5 min of the sequence, the mobile phase mixture received a pure ammonium acetate solution. The column temperature was held at 30 °C, whereas the flow rate was 0.9 mL/min.
The reference substances for the calibration of HSA, C18, and IAM columns were purchased, respectively: acetanilide, butyrophenone, diclofenac, and octanonophenone (Alfa Aesar, Haverhill, MA, USA); acetophenone, benzimidazole, colchicine, indole, indometacin, paracetamol, and theophylline (Sigma-Aldrich, Steinheim, Germany); nicardipine and nizatidine (Cayman Chemical, Ann Arbor, MI, USA); carbamazepine, heptanophenone, hexanophenone, propiophenone, and valerophenone (Acros Organic, Pittsburg, PA, USA). Before chromatographic experiments, solutes were dissolved in dimethyl sulfoxide (Avantor Performance Materials Poland S.A., Gliwice, Poland) to obtain a 200 µg/mL concentration. The detection was performed in the UV region at the wavelength from 190 nm to 300 nm. The injected volume was 5 μL, and each compound was analyzed in triplicate.

[5] = target: T1, human 5-HT6; assay: Functional evaluation, cAMP (LANCE Ultra) in HEK293 cells; assay type: cell-based; conditions: antagonist mode, cAMP induced by 5-CT 1000 nM
Method: The supernatant was aspirated, and the cell pellet was resuspended in a stimulation buffer (1 × HBSS, 5 mM HEPES, 0.5 mM IBMX, 0.1% BSA).
The functional properties of compounds were evaluated using the LANCE Ultra cAMP detection kit (PerkinElmer). […] To investigate the antagonist activity, dopamine for D2R was added at a concentration of 10 nM, and for cell lines with 5-HT7R, 5-HT1AR, or 5-HT6R, 5-CT concentrations were adjusted, being, respectively, 10, 100, and 1000 nM, according to the receptor subtype.
For the quantification of cAMP levels, cells (5 µL) were incubated with a 5 µL mixture of necessary compounds for 30 min at room temperature in a 384-well white opaque microtiter plate (PerkinElmer). After incubation, the reaction was stopped, and cells were lysed by the addition of a 10 µL working solution (5 µL Eu-cAMP and 5 µL ULight-anti-cAMP). The assay plate was incubated for 1 h at room temperature. The time-resolved fluorescence resonance energy transfer (TR-FRET) signal was detected by an Infinite M1000 Pro (Tecan, Männedorf, Switzerland) using instrument settings from the LANCE Ultra cAMP detection kit manual.

[6] = tested on: astrocyte cell line PG-4; assay: Activity on normal astrocytes (MTS), PG-4; conditions: Felis catus, 72 h, read-out: IC50 Values PG-4
[7] = target: T2, 5-HT1A receptor (Homo sapiens, UniProt P08908); assay: [3H]-8-OHDPAT radioligand binding assay, 5-HT1A
T2 sequence (P08908 1-422): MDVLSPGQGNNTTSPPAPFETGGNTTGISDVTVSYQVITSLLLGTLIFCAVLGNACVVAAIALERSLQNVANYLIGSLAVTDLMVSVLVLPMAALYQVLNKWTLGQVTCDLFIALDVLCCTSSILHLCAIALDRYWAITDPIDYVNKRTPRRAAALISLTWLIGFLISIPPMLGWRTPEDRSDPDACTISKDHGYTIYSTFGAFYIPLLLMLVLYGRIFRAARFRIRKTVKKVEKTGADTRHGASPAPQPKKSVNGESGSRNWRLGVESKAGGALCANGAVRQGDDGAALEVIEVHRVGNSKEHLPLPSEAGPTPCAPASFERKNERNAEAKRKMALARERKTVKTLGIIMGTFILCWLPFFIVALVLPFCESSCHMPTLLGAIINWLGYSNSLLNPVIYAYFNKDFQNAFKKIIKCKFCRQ

[8] = tested on: U87MG glioblastoma cells; assay: Antiproliferative activity (MTS), U87MG; conditions: Homo sapiens, U-87 MG, 72 h, read-out: IC50 Values U87MG
[9] = target: 5-HT7b receptor (Homo sapiens, UniProt P34969); assay: [3H]-5-CT radioligand binding assay, 5-HT7
[10] = target: human serum albumin (HSA) (Homo sapiens, UniProt P02768); assay: Binding to HSA, Chiralpak HSA column; conditions: Chiralpak HSA column
Procedure, shortened: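 HSA binding (%HSA) was estimated by HPLC on a Chiralpak HSA column at 30 °C and 0.9 mL/min. The gradient ran 0–20% isopropanol in 50 mM ammonium acetate over 15 min, then held 12 min. UV detection covered 190–300 nm, and values were calibrated against reference compounds, in triplicate.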

[11] = tested on: AsPC-1 pancreas adenocarcinoma cell line; assay: Antiproliferative activity (MTS), AsPC-1; conditions: Homo sapiens, ASPC1, 72 h, read-out: IC50 Values AsPC-1
[12] = Metabolic stability in mouse liver microsomes (MLMs); assay type: in vitro ADME; conditions: 120 min; for remaining at 2 h, 50 µM: mouse, mouse liver microsomes
Method: The metabolic stability of PR 68, PR 73, and PR 76 were determined in mouse liver microsomes (MLMs).
The metabolic stability of PR 68 was estimated with mouse liver microsomes (MLMs) (Sigma-Aldrich, St. Louis, MO, USA). […] Cold methanol was then added to the reaction mixture to quench the reaction. The precipitated MLMs were centrifuged, and the supernatant was analyzed by LC/MS with a Waters ACQUITY™ TQD system with a TQ detector (Waters, Milford, USA).
(1 picture or pasted object on this page, not shown here)

[13] = tested on: U-251 glioblastoma cells; assay: Antiproliferative activity (MTS), U-251; conditions: Homo sapiens, U-251, 72 h, read-out: IC50 Values U-251
[14] = tested on: 1321N1 astrocytoma cell line; assay: Antiproliferative activity (MTS), 1321N1; conditions: Homo sapiens, 1321-N1, 72 h, read-out: IC50 Values 1321N1
[15] = tested on: MCF7 breast carcinoma cell line; assay: Antiproliferative activity (MTS), MCF7; conditions: Homo sapiens, MCF7, 72 h, read-out: IC50 Values MCF7

T1 sequence (P50406 whole entry): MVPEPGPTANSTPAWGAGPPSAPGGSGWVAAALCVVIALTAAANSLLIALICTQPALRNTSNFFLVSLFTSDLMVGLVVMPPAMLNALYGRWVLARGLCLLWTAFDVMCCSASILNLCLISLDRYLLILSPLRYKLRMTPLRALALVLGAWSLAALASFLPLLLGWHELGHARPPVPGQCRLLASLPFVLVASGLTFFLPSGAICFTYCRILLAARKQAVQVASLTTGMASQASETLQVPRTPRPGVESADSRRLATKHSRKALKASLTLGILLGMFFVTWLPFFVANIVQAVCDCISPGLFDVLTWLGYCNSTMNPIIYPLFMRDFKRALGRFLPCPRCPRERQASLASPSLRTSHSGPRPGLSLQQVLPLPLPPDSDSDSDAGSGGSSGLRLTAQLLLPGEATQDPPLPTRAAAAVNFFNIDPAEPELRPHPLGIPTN
human serum albumin (HSA), sequence (P02768 25-609): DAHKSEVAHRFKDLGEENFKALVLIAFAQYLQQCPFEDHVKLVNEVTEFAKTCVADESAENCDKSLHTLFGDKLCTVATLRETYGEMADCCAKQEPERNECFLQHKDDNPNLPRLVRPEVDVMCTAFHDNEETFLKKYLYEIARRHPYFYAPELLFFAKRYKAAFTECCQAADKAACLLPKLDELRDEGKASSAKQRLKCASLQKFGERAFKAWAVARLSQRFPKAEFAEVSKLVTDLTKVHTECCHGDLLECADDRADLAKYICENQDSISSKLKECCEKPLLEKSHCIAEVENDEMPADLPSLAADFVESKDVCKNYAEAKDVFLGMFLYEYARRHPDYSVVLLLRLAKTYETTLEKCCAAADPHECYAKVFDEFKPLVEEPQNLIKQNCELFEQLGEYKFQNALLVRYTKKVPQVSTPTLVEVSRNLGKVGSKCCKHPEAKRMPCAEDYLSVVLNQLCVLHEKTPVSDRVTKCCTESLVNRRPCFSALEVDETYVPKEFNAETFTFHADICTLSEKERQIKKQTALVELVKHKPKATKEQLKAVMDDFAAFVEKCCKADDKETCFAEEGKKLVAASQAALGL
5-HT7b receptor, sequence (P34969 1-432 limits assumed): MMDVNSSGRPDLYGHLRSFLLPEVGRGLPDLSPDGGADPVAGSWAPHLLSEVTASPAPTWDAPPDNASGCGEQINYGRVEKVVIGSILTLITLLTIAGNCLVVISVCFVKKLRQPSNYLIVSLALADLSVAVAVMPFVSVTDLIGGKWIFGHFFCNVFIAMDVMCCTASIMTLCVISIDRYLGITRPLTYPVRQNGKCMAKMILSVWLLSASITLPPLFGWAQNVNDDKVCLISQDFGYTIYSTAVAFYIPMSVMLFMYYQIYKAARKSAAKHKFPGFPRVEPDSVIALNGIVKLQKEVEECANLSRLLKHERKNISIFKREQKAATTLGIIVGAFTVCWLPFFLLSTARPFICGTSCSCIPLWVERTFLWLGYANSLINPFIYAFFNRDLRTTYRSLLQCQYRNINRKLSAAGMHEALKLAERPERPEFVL
D2L receptor, sequence (P14416 whole entry): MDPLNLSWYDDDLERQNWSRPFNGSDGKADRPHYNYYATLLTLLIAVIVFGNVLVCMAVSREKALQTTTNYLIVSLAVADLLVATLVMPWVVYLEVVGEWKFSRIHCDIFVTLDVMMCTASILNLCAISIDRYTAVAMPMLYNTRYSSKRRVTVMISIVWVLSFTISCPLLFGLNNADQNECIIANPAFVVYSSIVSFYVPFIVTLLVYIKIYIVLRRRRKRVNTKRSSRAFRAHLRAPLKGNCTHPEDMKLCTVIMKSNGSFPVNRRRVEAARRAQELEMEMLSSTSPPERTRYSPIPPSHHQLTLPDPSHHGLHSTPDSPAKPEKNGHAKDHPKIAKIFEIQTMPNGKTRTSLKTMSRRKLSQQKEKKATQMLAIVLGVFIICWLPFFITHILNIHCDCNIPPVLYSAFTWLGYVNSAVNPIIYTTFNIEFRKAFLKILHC

CC1NC(NS(=O)(=O)c2cccc3ccccc23)=Nc2cccc(F)c21 (stereo not shown) [PR 73, N -(5-fluoro-4-methyl-3,4-dihydroquinazolin-2-yl)naphthalene-1-sulfonamide]
Ki [1]: 146 µM | Ki [2]: 0.043 ± 0.011 µM | IC50 [3]: > 25 µM | CHI C18 pH 2.6 [4]: 94.6 | CHI C18 pH 7.4 [4]: 94.9 | CHI C18 pH 10.5 [4]: 96.5 | Kb [5]: 0.134 µM | IC50 [6]: > 25 µM | Ki [7]: 80 µM | IC50 [8]: > 25 µM | Ki [9]: 35.8 µM | %HSA [10]: 96.6% | logKHSA [10]: 1.3 | IC50 [11]: > 25 µM | remaining at 2 h, 50 µM [12]: 24.6% | IC50 [13]: > 25 µM | IC50 [14]: > 25 µM | IC50 [15]: > 25 µM

CC1NC(NS(=O)(=O)c2cccc3ccccc23)=Nc2cccc(Cl)c21 (stereo not shown) [PR 68, N -(5-chloro-4-methyl-3,4-dihydroquinazolin-2-yl)naphthalene-1-sulfonamide]
Ki [1]: 622 µM | Ki [2]: 0.037 ± 0.008 µM | IC50 [3]: > 25 µM | CHI C18 pH 2.6 [4]: 101.4 | CHI C18 pH 7.4 [4]: 99.2 | CHI C18 pH 10.5 [4]: 103.0 | Kb [5]: 0.079 µM | IC50 [6]: > 25 µM | Ki [7]: 35.1 µM | IC50 [8]: > 25 µM | Ki [9]: 19.3 µM | %HSA [10]: 97.7% | logKHSA [10]: 1.5 | IC50 [11]: > 25 µM | metabolized [12]: 49% | remaining at 2 h, 50 µM [12]: 51.1% | IC50 [13]: > 25 µM | IC50 [14]: > 25 µM | IC50 [15]: > 25 µM
